Source: patent US5583020A, “Permeability enhancers for negatively charged polynucleotides” (Ribozyme Pharmaceuticals, Inc., priority 1993, dated 1996)
Read-outs that look alike come from different tables or passages of the source.

Legend:
[1] = Diffusion of 32P-ribozyme across a liposome membrane (liposome-associated radioactivity); type: in vitro ADME
Source text: The ribozyme was a 36 mer containing five 2'-O-methyl riboses at the 5' end and the 3' end. The ratio of permeability enhancer molecules per mole of phosphate was about 20:1.

HeLa cells = experiment: Diffusion of 32P-ribozyme into HeLa cells (cell associated radioactivity); type: cell-based; details: 20 molecules enhancer per mole of ribozyme phosphate; pH about 4, diluted in DMEM without serum; 1 hour at 37° C., 5% CO2
Protocol: This example illustrates the ability of an enhancer to facilitate the diffusion of a ribozyme into HeLa cells. […] The sample was diluted up to 1 ml with DMEM media containing no serum and added to HeLa cells. A control was run containing ^32 P-ribozyme without enhancer. Cells were incubated for 1 hour at 37° C. in 5% CO2. The cells were washed 3 times with serum free media and solubilized with 0.5 ml of 1% triton.

[2] = not told
Protocol: Specifically, twenty μg of ^32 P radiolabeled ribozyme (1.68×10^-9 moles) was incubated with 1.2×10^-6 moles of permeability enhancer in 50 μl of water to give a pH of about 4. Incubation was carried out at 25° C. for 15 minutes. After the incubation, 1×10^-11 moles of dioleoylphosphatidylcholine liposomes was added to the 50 μl solution. The solution was diluted to 100 μl with 20 mM HEPES (pH 7.4) and centrifuged in a microfuge for 5 minutes to pellet the liposomes. The supernatant was removed and the lipid pellets were washed with 100 μl of 20 mM HEPES (pH 7.4). The lipid pellets were solubilized in 1% Triton X-100 and the amount of radioactivity associated with the lipid pellets was measured. The amount of associated radioactivity reflects the amount of diffusion across the liposome membrane.
A titration of the permeability enhancer to ribozyme was performed by holding the amount of ribozyme constant and increasing the molar charge ratio of the permeability enhancer (aminocaprylic acid) to ribozyme. The experiment was carried out as described above using different amounts of enhancer.

[3] = ratio of permeability enhancer per mole of phosphate about 20:1, pH about 4, 25° C., 15 minutes, 32P ribozyme (36 mer)

Row | SMILES | % Liposome Associated [1] [%] | % Liposome Associated [1, 3] [%] | further results
1 | NCCCC(=O)O [Aminobutyric Acid] | 0.53 | – | –
2 | NCCCCCC(=O)O [Aminocaproic Acid] | – | 0.70 | –
3 | NCCCCCCCC(=O)O [Aminocaprylic Acid] | – | 9.54 | degree of membrane association (in words) ([1]; ribozyme, enhancer to phosphate about 20:1): highest degree of membrane association; amount of cell associated radioactivity, enhancer:ribozyme versus ribozyme alone (HeLa cells): 3 fold; membrane association on increasing the ratio of enhancer to ribozyme (in words) [2]: concomitant increase in membrane association
4 | O=C(O)/C=C/c1c[nH]cn1 [Urocanic Acid] | 0.95 | – | –
5 | NCC(=O)O [glycine] | – | 0.55 | –
6 | Nc1cccc(C(=O)O)c1 [m-Aminobenzoic Acid] | 2.54 | – | –
